The values that follow come from PubChem BioAssay (NCI).

Assay in all cases: NCI-60 cell line screen, 48 h
In assay [1] the test system is 786-0 renal.
Assay [2] deals with A549 NSCLC.
Assay [3] deals with BT-549 breast.
For assay [4], the system named is HCT-116 colon.
The subject of assay [5] is HCT-15 colon.
Assay [6] concerns HL-60(TB) leukemia.
The subject of assay [7] is HOP-92 NSCLC.
Assay [8] has as its system IGROV1 ovarian.
Assay [9] has as its system K-562 leukemia.
Assay [10] has as its system KM12 colon.
For assay [11], the system named is OVCAR-3 ovarian.
Assay [12] relates to OVCAR-5 ovarian.
In assay [13] the test system is OVCAR-8 ovarian.
For assay [14], the system named is SF-295 CNS.
Assay [15] concerns SK-MEL-5 melanoma.
The subject of assay [16] is SK-OV-3 ovarian.
In assay [17] the test system is SW-620 colon.
In assay [18] the test system is UO-31 renal.
Assay [19] has as its system EKVX NSCLC.
Assay [20] has as its system RXF 393 renal.

SMILES strings stand for the structures.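 Results reflect a 48-hour exposure of cells in 96-well plates to compound at five concentrations. TGI is the concentration that stops growth completely.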

`O=C1Cc2c([nH]c3c(Cl)cccc23)-c2ccccc2N1`: the TGI in assay [1], in assay [2], in assay [3], in assay [4], in assay [5] and in assay [6] was greater than 100 µM in each case. In addition, the TGI in [7], in assay [8], in assay [9], in assay [10], in [11] and in assay [12] was greater than 100 µM each time. Also, the TGI in assay [13], in assay [14], in [15], in assay [16], in assay [17] and in [18] was greater than 100 µM throughout.
On to `N#Cc1c2c(c(Nc3cccc(C(F)(F)F)c3)n3c1nc1ccccc13)CCC2`, for which the TGI in [1], in assay [3], in [19], in [4], in assay [5] and in assay [7] was greater than 100 µM in each case. Also, the TGI in assay [10], in assay [11], in assay [12], in assay [13], in assay [20] and in assay [14] was greater than 100 µM throughout. Besides, the TGI in assay [15], in assay [16] and in assay [17] was greater than 100 µM in each case.
On to `O=C1CCCC2C(O)CCC[C@H]12` (some centres undefined), for which the TGI in assay [1], in assay [2], in assay [3], in [19], in assay [4] and in assay [5] was greater than 100 µM throughout. In addition, the TGI in assay [6], in [8], in [9], in assay [10], in assay [12] and in [13] was greater than 100 µM in each case. Also, the TGI in assay [20], in assay [14], in assay [15], in assay [16], in assay [17] and in [18] was greater than 100 µM each time.
`COC(=O)c1cc2c3c(cc(N(C)C)c2[nH]1)N(C(=O)c1cc2cc(OC)c(OC)c(OC)c2[nH]1)CC3CCl` (centres undefined): the TGI in assay [1] was 0.00487 µM; in [3] it was 0.193 µM; in [19] it was 2.79 µM; in assay [4], less than 0.0025 µM; in assay [5], 19.2 µM; in assay [7] it was 0.756 µM. The TGI in assay [9] was 0.788 µM; in assay [10] it was 0.0118 µM; in [11] it was 0.0136 µM; in assay [12], 0.25 µM; in assay [20], less than 0.0025 µM; in [14], 0.226 µM. In addition, the figures for the TGI in assay [15] and in assay [16] were 0.00591 µM and 0.101 µM, respectively.
On to `COC(=O)C(C)(C)OCc1ccc(C2NC(=O)N(c3cccc(Cl)c3)C(=O)N2c2cccc(Cl)c2)cc1` (centres undefined), for which the TGI in [1] was greater than 100 µM; in assay [2], greater than 100 µM; in assay [3] it was greater than 100 µM; in assay [19], 78.8 µM; in assay [4] it was greater than 100 µM; in [5], greater than 100 µM. Besides, the TGI in assay [7] is 69.7 µM; in assay [8] it was greater than 100 µM; in assay [9] it was greater than 100 µM; in assay [10] it was greater than 100 µM; in assay [11], greater than 100 µM; in assay [12] it was greater than 100 µM. Further, the TGI is greater than 100 µM in [13]; greater than 100 µM in [20]; greater than 100 µM in assay [14]; 52.8 µM in assay [15]; greater than 100 µM in assay [16]; greater than 100 µM in [17]. This molecule also yielded a TGI in assay [18] greater than 100 µM.
`S=c1nc(Cc2ccc(Cl)cc2)[nH][nH]1`: the TGI in assay [1], in assay [2], in assay [3], in assay [19], in [4] and in assay [5] was greater than 100 µM throughout. The TGI in assay [7] was 85.7 µM; in assay [8], greater than 100 µM; in [9], greater than 100 µM; in assay [10], greater than 100 µM; in assay [11], greater than 100 µM; in [12] it was greater than 100 µM. The TGI in assay [13], in assay [14], in assay [15], in assay [16], in assay [17] and in [18] was greater than 100 µM each time.
With `O=c1[nH]cnc2c1sc1nc3ccccc3n12`, the TGI in [1], in assay [2], in assay [3], in [19], in assay [4] and in assay [5] was greater than 100 µM in each case. Also, the TGI in assay [7] was greater than 100 µM; in assay [8], greater than 100 µM; in [10], 54.9 µM; in assay [11] it was greater than 100 µM; in assay [12] it was greater than 100 µM; in assay [13], greater than 100 µM. Besides, the TGI is 84.4 µM in [20]; greater than 100 µM in assay [14]; greater than 100 µM in [15]; greater than 100 µM in [16]; greater than 100 µM in assay [17]; greater than 100 µM in assay [18].
For `Cc1ncc([N+](=O)[O-])n1CCN(C)C(=O)CCCn1ccnc1[N+](=O)[O-]`, the TGI in [1], in assay [2], in assay [3], in assay [19], in assay [4] and in [5] was greater than 100 µM in each case. The TGI in [6], in assay [8], in assay [9], in [10], in [11] and in [12] was greater than 100 µM in each case. The TGI in assay [13], in [20], in assay [14], in assay [15], in assay [16] and in assay [17] was greater than 100 µM in each case. The molecule further came in with a TGI in assay [18] greater than 100 µM.
